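Results reflect a 48-hour exposure of cells in 96-well plates to compound at five concentrations. GI50 = concentration required for 50% inhibition of growth. Definition used: TGI = concentration required for complete inhibition of growth.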
What was measured:
Test in all cases: NCI anticancer screen, dose series, 48 h
HL-60(TB) leukemia = tested on: HL-60(TB) leukemia
ACHN renal = tested on: ACHN renal
TK-10 renal = tested on: TK-10 renal
PC-3 prostate = tested on: PC-3 prostate
HT29 colon = tested on: HT29 colon
HOP-62 NSCLC = tested on: HOP-62 NSCLC
T-47D breast = tested on: T-47D breast
IGROV1 ovarian = tested on: IGROV1 ovarian
HCC-2998 colon = tested on: HCC-2998 colon
A498 renal = tested on: A498 renal

Compound | TGI (HL-60(TB) leukemia) [µM] | TGI (ACHN renal) [µM] | TGI (TK-10 renal) [µM] | TGI (PC-3 prostate) [µM] | TGI (HT29 colon) [µM] | TGI (HOP-62 NSCLC) [µM] | TGI (T-47D breast) [µM] | TGI (IGROV1 ovarian) [µM] | TGI (HCC-2998 colon) [µM] | TGI (A498 renal) [µM] | GI50 (HL-60(TB) leukemia) [µM] | GI50 (ACHN renal) [µM] | GI50 (TK-10 renal) [µM] | GI50 (PC-3 prostate) [µM] | GI50 (HT29 colon) [µM] | GI50 (HOP-62 NSCLC) [µM] | GI50 (T-47D breast) [µM] | GI50 (IGROV1 ovarian) [µM] | GI50 (HCC-2998 colon) [µM] | GI50 (A498 renal) [µM]
CC(O)c1c2c(cc3c1CC1(C3)Cc3cc4c(c(C(C)O)c3C1)CCC4)CCC2 (stereo not given) | 21.2 | 31.4 | 69.7 | 34.9 | 28.3 | 38.8 | 53.7 | 42.3 | 40.2 | 29 |  |  |  |  |  |  |  |  |  | 
O=C(O)c1cccc(S(=O)(=O)NN2C(=O)CSC2c2ccccc2)c1 (stereo not given) | > 100 | > 100 | > 100 | > 100 | > 100 | > 100 | > 100 | > 100 | > 100 | > 100 |  |  |  |  |  |  |  |  |  | 
COc1ccccc1/C=C1\Sc2scc(-c3cccc([N+](=O)[O-])c3)[n+]2C1=O | 1.17 | 9.93 | 10.7 | 37.4 | 9.97 | 27.6 | 33.1 | 26.1 | 22.8 | 48.9 |  |  |  |  |  |  |  |  |  | 
Cc1cn(CC2=NCCN2)c(=O)[nH]c1=O | > 100 | > 100 | > 100 | > 100 | > 100 | > 100 | > 100 | > 100 | > 100 | > 100 |  |  |  |  |  |  |  |  |  | 
COC(=O)C1Cc2c([nH]c3ccccc23)C(c2cccc(O)c2)N1 (stereo not given) | 48.2 | > 100 | > 100 | 80.3 | 83.4 | > 100 | > 100 | > 100 | 48.3 | > 100 |  |  |  |  |  |  |  |  |  | 
O=c1[nH]c2cc(C(F)(F)F)ccc2nc1Cc1ccccc1 | > 100 | > 100 | > 100 | > 100 | > 100 | 95.9 | > 100 | > 100 | > 100 | > 100 |  |  |  |  |  |  |  |  |  | 
CC[C@@H](CCCC[C@@H]1CC[C@H]2CC(=O)C[C@@H]12)OC | > 100 | > 100 | > 100 | > 100 | > 100 | > 100 | > 100 | > 100 | > 100 | > 100 |  |  |  |  |  |  |  |  |  | 
Nc1nc(Cl)c(C=O)c(NCC2(CO)CC(CCc3ccccc3)C2)n1 (stereo not given) | 3.34 | 25.8 | 62.4 | 16.3 | 27.7 | 28.6 | 31 | 3.48 | 4.94 | 42.1 |  |  |  |  |  |  |  |  |  | 
CC(C)(C)c1cc(C(=O)/C=C/c2ccc(O)c(O)c2O)cc(C(C)(C)C)c1O | 5.82 | 18.9 | 18.3 | 15.7 | 27.7 | 27.8 | 13.3 | 43.9 | 11.7 | 34.4 |  |  |  |  |  |  |  |  |  | 
COc1ccc(/C=C2\CN(C(=O)CCN3CCC(=NO)CC3)C/C(=C\c3ccc(OC)cc3)C2=O)cc1 | 8.27 | 4.05 | 10.4 | 4.74 | 4.45 | 4.59 | 8.91 | 4.36 | 3.51 | 3.2 | 2.8 | 1.95 | 2.86 | 2 | 2.04 | 2.03 | 2.57 | 1.94 | 1.85 | 1.6
CC(CC(=O)CO[C@H]1[C@H](O)[C@@H](O)[C@@H](O)[C@@H]2NC(=O)c3c(cc4c(c3O)OCO4)[C@H]21)OC1OC(CO)C(O)C(O)C1O (stereo not given in full) | 2.45 | 2.6 | 1.55 | 1.48 | 2.32 | 2.29 | 0.894 | 6.82 | 0.633 | 4.39 |  |  |  |  |  |  |  |  |  | 
O=C(c1ccccc1)c1nn(-c2ccc(Cl)cc2)c2nc3nc(-c4ccccc4)cc(=O)n3nc12 | 14.8 | > 100 | 85.6 | > 100 | > 100 | > 100 | > 100 | > 100 | 66.5 | > 100 | 3.48 | 37.4 | 31.8 | 39.3 | 33.1 | 32.3 | 65.9 | 18.3 | 29.7 | 58.8
COc1ccc(NC(=O)CC(=O)n2nc(C)c(N=Nc3ccc(C)c(C)c3)c2C)cc1 | > 100 | > 100 | > 100 | > 100 | > 100 | > 100 | > 100 | > 100 | > 100 | > 100 |  |  |  |  |  |  |  |  |  | 
Cc1cc(S(N)(=O)=O)c(SCc2nc(N)nc(N(C)C)n2)cc1Cl | > 10 | > 10 | > 10 | > 10 | > 10 | > 10 | > 10 | > 10 | > 10 | > 10 |  |  |  |  |  |  |  |  |  | 
CCOC(=O)C1(Cc2ccccc2)Cc2cc3c(cc2C1)CCC3 | 76.9 | > 100 | > 100 | > 100 | 46.2 | > 100 | > 100 | > 100 | 52.8 | > 100 |  |  |  |  |  |  |  |  |  | 
S=C(NNC1=NCCCN1)Nc1ccccc1 | > 100 | > 100 | > 100 | > 100 | > 100 | > 100 | > 100 | > 100 | > 100 | > 100 |  |  |  |  |  |  |  |  |  | 

— PubChem BioAssay (NCI)
